Test results: paper PMC8068264 (2021)

Columns and labels:
[1] = tested on: SA3-6A/B (DNA, aptamer) TGCGGAGGAAGGTTCGACCATCGTGCGGGTAGGTAGACC/GAACCTGGGGGAGTAGGTCTACCTACCCGCACGATGGTC; assay: UV melting, first-peak height; settings: 150 mM NaCl, 5 mM MgCl2; 10 mM HEPES pH 7.4; 100 µM guanosine negative control; signal close to that of 5 µM adenosine
[2] = tested on: SA5-6A/B (DNA, aptamer) CCTGCGGAGGAAGGTTCGACCATCGTGCGGGTAGGTAGA/GAACCTGGGGGAGTAGGTCTACCTACCCGCACGATGGTC; assay: UV melting at 260 nm; settings: 150 mM NaCl, 5 mM MgCl2; 10 mM HEPES pH 7.4; 100 µM adenosine; 0.9 µM strands; first (aptachain) peak
[3] = tested on: SA5-8A/B (DNA, aptamer) CCTGCGGAGGAAGGTTCTCGACCATCGTGCGGGTAGGTAGA/GAGAACCTGGGGGAGTAGGTCTACCTACCCGCACGATGGTC; assay: UV melting at 260 nm; settings: 150 mM NaCl, 5 mM MgCl2; 10 mM HEPES pH 7.4; 100 µM adenosine; 0.9 µM strands; first (aptachain) peak
[4] = tested on: SA5-5A/B (DNA, aptamer) CCTGCGGAGGAAGGTTGACCATCGTGCGGGTAGGTAGA/AACCTGGGGGAGTAGGTCTACCTACCCGCACGATGGTC; assay: UV melting at 260 nm; settings: 150 mM NaCl, 5 mM MgCl2; 10 mM HEPES pH 7.4; 100 µM adenosine; 0.9 µM strands; first (aptachain) peak
[5] = tested on: Apta6 (DNA, aptamer) GAACCTGGGGGAGTATTGCGGAGGAAGGTTC; assay: UV melting at 260 nm; settings: 150 mM NaCl, 5 mM MgCl2; 10 mM HEPES pH 7.4; 100 µM adenosine; 0.9 µM strand; single hairpin peak
[6] = tested on: SA3-6A/B (DNA, aptamer) TGCGGAGGAAGGTTCGACCATCGTGCGGGTAGGTAGACC/GAACCTGGGGGAGTAGGTCTACCTACCCGCACGATGGTC; assay: UV melting at 260 nm; settings: 150 mM NaCl, 5 mM MgCl2; 10 mM HEPES pH 7.4; 100 µM adenosine; 0.9 µM strands; first (aptachain) peak
[7] = tested on: SA3-5A/B (DNA, aptamer) TGCGGAGGAAGGTTGAGGACCATCGTGCGGGTAGGTAGACC/GAGAACCTGGGGGAGTAGGTCTACCTACCCGCACGATGGTC; assay: UV melting at 260 nm; settings: 150 mM NaCl, 5 mM MgCl2; 10 mM HEPES pH 7.4; 100 µM adenosine; peak at 28 °C only with adenosine, absent without
[8] = tested on: SA3-6A/B (DNA, aptamer) TGCGGAGGAAGGTTCGACCATCGTGCGGGTAGGTAGACC/GAACCTGGGGGAGTAGGTCTACCTACCCGCACGATGGTC; assay: UV melting first-peak height, Langmuir fit; settings: 150 mM NaCl, 5 mM MgCl2; 10 mM HEPES pH 7.4; 0.9 µM strands; peak normalized to dimer peak; apparent; per site

SMILES	binding [1]	ΔTm [2]	ΔTm [3]	ΔTm [4]	ΔTm [5]	ΔTm [6]	binding [7]	KD [8]
Nc1nc2c(ncn2[C@@H]2O[C@H](CO)[C@@H](O)[C@H]2O)c(=O)[nH]1	weak							
Nc1ncnc2c1ncn2[C@@H]1O[C@H](CO)[C@@H](O)[C@H]1O		2.5 °C	2 °C	2.5 °C	< 1 °C	5.5 °C	yes	19 ± 2 µM
